In patent US20230364070A1, “PYRROLO[3,2-C]PYRIDIN-4-ONE DERIVATIVES USEFUL IN THE TREATMENT OF CANCER” (Scorpion Therapeutics, Inc., priority 2020, published 2023) one finds IC50 data, which are given here for 21 compounds.

Holding throughout (type): cell-based
One experiment addresses T1, pEGFR in CUTO14 cells (Homo sapiens, UniProt P00533, DUP767-769).
T1 construct: endogenous in cells; host or cells: CUTO14 cells
In words: Inhibitor activity on EGFR phosphorylation (pEGFR AlphaLISA, 2 h), CUTO14 cells. The protocol: CUTO14 cells were obtained from Dr. Robert C. Doebele at the University of Colorado.
Shake 350 rpm for 1 hr in the dark • 3.4 Prepare donor mix under low light conditions prior to use. Dispense 5 μL of donor mix to all the wells. Mix well on the shaker, seal and wrap in aluminum foil and incubate 1.5 hrs at room temperature in the dark • 3.5 Transfer 18.5 μL mixture to OptiPlate 384, and read using an Envision.

The target of experiment [1] is T2, Ba/F3 cells with EGFR exon 20 NPG Ins D770_N771 (Homo sapiens, UniProt P00533, INS770NPG).
T2 construct: expressed in transfected cells; host or cells: Ba/F3 (murine pro-B cells), retroviral transduction, puromycin selection, IL3-independent pool
T2 sequence (P00533 with tags, fused parts or gaps INS770NPG): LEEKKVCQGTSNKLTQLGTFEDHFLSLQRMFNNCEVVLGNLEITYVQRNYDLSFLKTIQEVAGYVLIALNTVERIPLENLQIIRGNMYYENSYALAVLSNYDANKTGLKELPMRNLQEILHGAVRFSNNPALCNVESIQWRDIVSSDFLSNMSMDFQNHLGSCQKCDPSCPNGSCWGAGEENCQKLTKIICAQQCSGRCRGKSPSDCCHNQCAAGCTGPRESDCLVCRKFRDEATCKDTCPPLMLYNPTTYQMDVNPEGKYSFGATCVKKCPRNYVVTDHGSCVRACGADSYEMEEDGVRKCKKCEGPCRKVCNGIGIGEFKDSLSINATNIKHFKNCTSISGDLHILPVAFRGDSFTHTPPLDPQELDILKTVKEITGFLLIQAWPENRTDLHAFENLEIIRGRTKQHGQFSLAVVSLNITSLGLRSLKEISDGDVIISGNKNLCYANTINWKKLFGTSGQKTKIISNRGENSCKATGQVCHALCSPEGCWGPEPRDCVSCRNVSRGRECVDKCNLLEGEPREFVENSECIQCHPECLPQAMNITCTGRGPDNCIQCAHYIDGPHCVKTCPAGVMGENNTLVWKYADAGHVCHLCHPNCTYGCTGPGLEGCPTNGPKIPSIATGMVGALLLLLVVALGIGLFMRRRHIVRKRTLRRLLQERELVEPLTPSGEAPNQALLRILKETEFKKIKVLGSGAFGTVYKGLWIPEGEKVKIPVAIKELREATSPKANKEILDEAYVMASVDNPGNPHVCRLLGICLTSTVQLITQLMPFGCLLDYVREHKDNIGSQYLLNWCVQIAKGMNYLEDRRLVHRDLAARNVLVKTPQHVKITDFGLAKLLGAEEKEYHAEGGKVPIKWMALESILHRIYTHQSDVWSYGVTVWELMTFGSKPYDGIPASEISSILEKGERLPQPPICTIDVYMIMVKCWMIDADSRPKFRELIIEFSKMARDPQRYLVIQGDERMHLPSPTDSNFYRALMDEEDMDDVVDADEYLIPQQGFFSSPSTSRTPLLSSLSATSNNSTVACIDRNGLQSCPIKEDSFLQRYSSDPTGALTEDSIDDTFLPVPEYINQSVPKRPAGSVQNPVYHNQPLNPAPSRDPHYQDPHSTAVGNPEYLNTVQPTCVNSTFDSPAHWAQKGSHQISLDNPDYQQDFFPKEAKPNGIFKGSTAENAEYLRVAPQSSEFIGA
The experiment in a line: EGFR activity: Ba/F3 cell viability (CellTiter-Glo, 72 h), EGFR exon 20 NPG insertion. Conditions: EGFR exon 20 NPG Ins D770_N771, cell viability, read-out: BaF3 NPG IC50.

For another experiment, the target named is T3, Ba/F3 cells with EGFR WT (Homo sapiens, UniProt P00533).
T3 construct: expressed in transfected cells; host or cells: Ba/F3 (murine pro-B cells), retroviral transduction, puromycin selection, maintained with EGF
T3 sequence (P00533 25-1210): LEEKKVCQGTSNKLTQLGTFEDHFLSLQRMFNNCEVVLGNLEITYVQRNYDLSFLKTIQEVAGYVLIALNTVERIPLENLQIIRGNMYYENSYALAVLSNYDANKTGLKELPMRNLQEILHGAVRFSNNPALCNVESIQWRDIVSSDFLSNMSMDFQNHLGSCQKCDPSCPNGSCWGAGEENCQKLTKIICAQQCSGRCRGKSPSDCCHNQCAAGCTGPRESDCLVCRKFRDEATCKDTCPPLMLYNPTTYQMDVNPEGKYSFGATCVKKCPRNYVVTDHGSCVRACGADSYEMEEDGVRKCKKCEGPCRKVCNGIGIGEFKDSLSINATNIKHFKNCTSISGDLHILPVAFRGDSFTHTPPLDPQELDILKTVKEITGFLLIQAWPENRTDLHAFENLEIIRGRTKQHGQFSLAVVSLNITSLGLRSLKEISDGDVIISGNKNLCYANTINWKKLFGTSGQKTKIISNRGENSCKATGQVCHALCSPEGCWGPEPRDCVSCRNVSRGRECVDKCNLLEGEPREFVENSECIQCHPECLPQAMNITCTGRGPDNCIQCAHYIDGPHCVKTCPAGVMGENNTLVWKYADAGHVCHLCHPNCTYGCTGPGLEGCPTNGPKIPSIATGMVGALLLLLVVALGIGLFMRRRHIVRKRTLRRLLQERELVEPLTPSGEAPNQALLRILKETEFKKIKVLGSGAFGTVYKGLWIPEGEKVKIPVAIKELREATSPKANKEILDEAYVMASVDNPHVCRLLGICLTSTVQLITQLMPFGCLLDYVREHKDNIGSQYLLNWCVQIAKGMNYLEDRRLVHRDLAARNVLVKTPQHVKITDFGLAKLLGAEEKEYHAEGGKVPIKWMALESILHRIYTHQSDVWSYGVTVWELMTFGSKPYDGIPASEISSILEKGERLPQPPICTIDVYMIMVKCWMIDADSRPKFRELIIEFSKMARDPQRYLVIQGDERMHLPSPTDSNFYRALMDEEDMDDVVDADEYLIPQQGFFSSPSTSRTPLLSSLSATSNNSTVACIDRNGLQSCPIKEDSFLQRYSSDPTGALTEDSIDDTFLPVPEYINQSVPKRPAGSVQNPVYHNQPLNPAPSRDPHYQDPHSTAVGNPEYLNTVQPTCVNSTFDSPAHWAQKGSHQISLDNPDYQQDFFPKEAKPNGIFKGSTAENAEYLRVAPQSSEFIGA
In words: EGFR activity: Ba/F3 cell viability (CellTiter-Glo, 72 h), EGFR WT. Particulars: read-out: BaF3 WT IC50. Background: Cellular ATP, detected with luciferase, serves as a proxy for viable cell number.

Experiment [2] concerns the target T4, Ba/F3 cells with EGFR exon 20 ASV Ins V769_D770 (Homo sapiens, UniProt P00533, INS769ASV).
T4 construct: expressed in transfected cells; host or cells: Ba/F3 (murine pro-B cells), retroviral transduction, puromycin selection, IL3-independent pool
The experiment in a line: EGFR activity: Ba/F3 cell viability (CellTiter-Glo, 72 h), EGFR exon 20 ASV insertion. Conditions: EGFR exon 20 ASV Ins V769_D770, cell viability, read-out: BaF3 ASV IC50.

T1 sequence (P00533 with tags, fused parts or gaps DUP767-769): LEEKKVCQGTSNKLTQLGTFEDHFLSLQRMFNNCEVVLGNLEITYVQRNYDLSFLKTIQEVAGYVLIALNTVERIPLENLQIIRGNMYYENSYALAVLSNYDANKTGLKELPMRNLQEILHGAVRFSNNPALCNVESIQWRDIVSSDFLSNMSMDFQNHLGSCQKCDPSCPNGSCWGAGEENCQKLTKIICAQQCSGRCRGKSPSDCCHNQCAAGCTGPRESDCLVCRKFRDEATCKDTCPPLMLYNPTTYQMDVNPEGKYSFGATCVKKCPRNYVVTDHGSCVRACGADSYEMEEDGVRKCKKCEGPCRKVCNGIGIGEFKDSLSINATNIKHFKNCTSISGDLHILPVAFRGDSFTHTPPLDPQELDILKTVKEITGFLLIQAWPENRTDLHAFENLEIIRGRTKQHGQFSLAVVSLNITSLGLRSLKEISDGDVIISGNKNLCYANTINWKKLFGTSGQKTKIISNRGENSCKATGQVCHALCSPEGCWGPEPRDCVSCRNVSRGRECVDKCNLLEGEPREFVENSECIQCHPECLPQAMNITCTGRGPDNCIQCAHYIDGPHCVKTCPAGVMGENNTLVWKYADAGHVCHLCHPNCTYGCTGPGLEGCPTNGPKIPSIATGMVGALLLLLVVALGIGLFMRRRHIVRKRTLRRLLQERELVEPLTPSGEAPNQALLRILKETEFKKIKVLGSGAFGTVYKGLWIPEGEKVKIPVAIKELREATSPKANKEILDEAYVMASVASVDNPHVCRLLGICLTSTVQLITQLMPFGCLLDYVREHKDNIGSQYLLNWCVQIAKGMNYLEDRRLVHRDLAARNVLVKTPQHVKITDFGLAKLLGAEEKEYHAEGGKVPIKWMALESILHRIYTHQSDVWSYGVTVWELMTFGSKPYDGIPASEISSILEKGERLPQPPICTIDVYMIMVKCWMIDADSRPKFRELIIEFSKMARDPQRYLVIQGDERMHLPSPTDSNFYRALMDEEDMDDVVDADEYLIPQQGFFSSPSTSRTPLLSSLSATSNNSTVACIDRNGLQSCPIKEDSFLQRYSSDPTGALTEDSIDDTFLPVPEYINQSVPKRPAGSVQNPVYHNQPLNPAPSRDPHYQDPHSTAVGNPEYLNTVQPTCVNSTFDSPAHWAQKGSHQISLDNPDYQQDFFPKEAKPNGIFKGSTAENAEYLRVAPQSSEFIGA
T4 sequence (P00533 with tags, fused parts or gaps INS769ASV): as the sequence (P00533 with tags, fused parts or gaps DUP767-769) above

The IC50 is the midpoint of a concentration-inhibition curve. Regarding `C=CC(=O)N1CCOC[C@H]1COc1cnccc1-c1[nH]c2c(c1Nc1cccc(F)c1OC)C(=O)NCC2` [compound 190], the IC50 on pEGFR in CUTO14 cells was below 100 nM; in experiment [1] it was below 100 nM; at Ba/F3 cells with EGFR WT it was 100 to 1000 nM; in experiment [2] it was below 100 nM.

Turning to `C=CC(=O)N1[C@H]2CC[C@H](C2)[C@@H]1C#Cc1cnccc1-c1[nH]c2c(c1Nc1cccc(Cl)c1OC)C(=O)NCC2` [compound 236, 3-[(3-chloro-2-methoxyphenyl)amino]-2-(3-{2-[(1S,3R,4R)-2-(prop-2-enoyl)-2-azabicyclo[2.2.1]heptan-3-yl]ethynyl}pyridin-4-yl)-1H,5H,6H,7H-pyrrolo[3,2-c]pyridin-4-one], the IC50 is below 100 nM against pEGFR in CUTO14 cells, below 100 nM in experiment [1], 100 to 1000 nM at Ba/F3 cells with EGFR WT and below 100 nM in experiment [2].

For the compound `C=CC(=O)N1[C@H](C#Cc2cnccc2-c2[nH]c3c(c2Nc2cccc(Cl)c2OC)C(=O)NCC3)CC[C@@H]1C` [compound 240, 3-[(3-chloro-2-methoxyphenyl)amino]-2-(3-{2-[(2S,5S)-5-methyl-1-(prop-2-enoyl)pyrrolidin-2-yl]ethynyl}pyridin-4-yl)-1H,5H,6H,7H-pyrrolo[3,2-c]pyridin-4-one], the IC50 (against pEGFR in CUTO14 cells; in experiment [1]; at Ba/F3 cells with EGFR WT; in experiment [2]) was below 100 nM throughout.

Take `C=CC(=O)N1[C@H]2CC[C@H](C2)[C@@H]1C#Cc1cnccc1-c1[nH]c2c(c1Nc1cccc(F)c1OC)C(=O)NCC2` [compound 252, 3-[(3-fluoro-2-methoxyphenyl)amino]-2-(3-{2-[(1S,3R,4R)-2-(prop-2-enoyl)-2-azabicyclo[2.2.1]heptan-3-yl]ethynyl}pyridin-4-yl)-1H,5H,6H,7H-pyrrolo[3,2-c]pyridin-4-one]: the IC50 against pEGFR in CUTO14 cells was below 100 nM; in experiment [1], below 100 nM; on Ba/F3 cells with EGFR WT, 100 to 1000 nM; in experiment [2] it was below 100 nM.

For `C=CC(=O)N1[C@H](C#Cc2cnccc2-c2[nH]c3c(c2Nc2cccc(F)c2OC)C(=O)NCC3)CC[C@@H]1C` [compound 255, 3-[(3-fluoro-2-methoxyphenyl)amino]-2-(3-{2-[(2S,5S)-5-methyl-1-(prop-2-enoyl)pyrrolidin-2-yl]ethynyl}pyridin-4-yl)-1H,5H,6H,7H-pyrrolo[3,2-c]pyridin-4-one], the IC50 (against pEGFR in CUTO14 cells; in experiment [1]; at Ba/F3 cells with EGFR WT; in experiment [2]) was below 100 nM in each case.

Regarding `C=CC(=O)N1[C@H](C)CC[C@H]1C#Cc1cnccc1-c1[nH]c2c(c1Nc1cccc(F)c1OC)C(=O)NCC2` [compound 257], the IC50 (on pEGFR in CUTO14 cells; in experiment [1]; at Ba/F3 cells with EGFR WT; in experiment [2]) was below 100 nM in each case.

As to `C=CC(=O)NC1(C#Cc2cnccc2-c2[nH]c3c(c2Nc2cccc(Cl)c2OC)C(=O)NCC3)CCC1` [compound 261], the IC50 at pEGFR in CUTO14 cells is below 100 nM; in experiment [1], below 100 nM; at Ba/F3 cells with EGFR WT it was 100 to 1000 nM; in experiment [2], below 100 nM.

Turning to `C=CC(=O)NC1(C#Cc2cnccc2-c2[nH]c3c(c2Nc2cccc(Cl)c2OC)C(=O)NCC3)COC1` [compound 264, N-{3-[2-(4-{3-[(3-chloro-2-methoxyphenyl)amino]-4-oxo-1H,5H,6H,7H-pyrrolo[3,2-c]pyridin-2-yl}pyridin-3-yl)ethynyl]oxetan-3-yl}prop-2-enamide], the IC50 on pEGFR in CUTO14 cells was below 100 nM; in experiment [1], below 100 nM; on Ba/F3 cells with EGFR WT it was 100 to 1000 nM; in experiment [2], below 100 nM.

As for `C=CC(=O)N1CC(C)(C)C[C@@H]1COc1cnccc1-c1[nH]c2c(c1Nc1cccc(Cl)c1OC)C(=O)NCC2` [compound 265], the IC50 (on pEGFR in CUTO14 cells; in experiment [1]; at Ba/F3 cells with EGFR WT; in experiment [2]) was below 100 nM throughout.

With `C=CC(=O)N1[C@H](COc2cnccc2-c2[nH]c3c(c2Nc2cccc(Cl)c2OC)C(=O)NCC3)C[C@H]1C` [compound 270], the IC50 against pEGFR in CUTO14 cells was below 100 nM; in experiment [1], below 100 nM; on Ba/F3 cells with EGFR WT, 100 to 1000 nM; in experiment [2], below 100 nM.

Take `C=CC(=O)N1[C@@H](COc2cnccc2-c2[nH]c3c(c2Nc2cccc(Cl)c2OC)C(=O)NCC3)C[C@H]1C` [compound 271]: the IC50 (on pEGFR in CUTO14 cells; in experiment [1]; at Ba/F3 cells with EGFR WT; in experiment [2]) was below 100 nM in each case.

Turning to `C=CC(=O)N1[C@@H](COc2cnccc2-c2[nH]c3c(c2Nc2cccc(Cl)c2OC)C(=O)NCC3)C[C@@H]1C` [compound 272], the IC50 (on pEGFR in CUTO14 cells; in experiment [1]; on Ba/F3 cells with EGFR WT; in experiment [2]) was below 100 nM in each case.

As for `C=CC(=O)N1[C@H](COc2cnccc2-c2[nH]c3c(c2Nc2cccc(Cl)c2OC)C(=O)NCC3)C[C@@H]1C` [compound 273], the IC50 (against pEGFR in CUTO14 cells; in experiment [1]; at Ba/F3 cells with EGFR WT; in experiment [2]) was below 100 nM throughout.

For the compound `CC#CC(=O)N1CCOC[C@H]1COc1cnccc1-c1[nH]c2c(c1Nc1cccc(F)c1OC)C(=O)NCC2` [compound 292], the IC50 is 100 to 1000 nM against pEGFR in CUTO14 cells, 100 to 1000 nM in experiment [1], above 1000 nM on Ba/F3 cells with EGFR WT and 100 to 1000 nM in experiment [2].

For `C=CC(=O)N1[C@@H](C#Cc2cnccc2-c2[nH]c3c(c2Nc2cccc(F)c2OC)C(=O)NCC3)C[C@@H]2C[C@@H]21` [compound 301], the IC50 on pEGFR in CUTO14 cells is below 100 nM; in experiment [1] it was below 100 nM; at Ba/F3 cells with EGFR WT, 100 to 1000 nM; in experiment [2], below 100 nM.

With `C=CC(=O)N1CCC[C@]1(C)C#Cc1cnccc1-c1[nH]c2c(c1Nc1cccc(F)c1CC)C(=O)NCC2` [compound 305], the IC50 on pEGFR in CUTO14 cells is below 100 nM; in experiment [1], below 100 nM; on Ba/F3 cells with EGFR WT it was 100 to 1000 nM; in experiment [2], below 100 nM.

On to `CC#CC(=O)N1CC[C@]1(C)COc1cnccc1-c1[nH]c2c(c1Nc1cccc(F)c1OC)C(=O)NCC2` [compound 307], for which the half-maximal inhibitory concentration (IC50) against pEGFR in CUTO14 cells is below 100 nM; in experiment [1], below 100 nM; on Ba/F3 cells with EGFR WT, 100 to 1000 nM; in experiment [2], below 100 nM.

Consider `CC#CC(=O)N1CC[C@]1(C)COc1cnccc1-c1[nH]c2c(c1Nc1cccc(Cl)c1OC)C(=O)NCC2` [compound 308], for which the IC50 on pEGFR in CUTO14 cells is below 100 nM; in experiment [1], below 100 nM; on Ba/F3 cells with EGFR WT, 100 to 1000 nM; in experiment [2] it was below 100 nM.

Turning to `C=CC(=O)NC1(C#Cc2cnccc2-c2[nH]c3c(c2Nc2cccc(F)c2OC)C(=O)NCC3)CN(C)C1` [compound 336], the IC50 is 100 to 1000 nM at pEGFR in CUTO14 cells, 100 to 1000 nM in experiment [1], above 1000 nM on Ba/F3 cells with EGFR WT and 100 to 1000 nM in experiment [2].

For the compound `CC#CC(=O)N1CC[C@@H]1COc1cnccc1-c1[nH]c2c(c1Nc1cc(F)cc(Cl)c1OC)C(=O)NCC2` [compound 346], the IC50 was below 100 nM on pEGFR in CUTO14 cells, below 100 nM in experiment [1], 100 to 1000 nM at Ba/F3 cells with EGFR WT and below 100 nM in experiment [2].

Regarding `CC#CC(=O)N1CC[C@@H]1COc1cnccc1-c1[nH]c2c(c1Nc1cc(F)cc(F)c1OC)C(=O)NCC2` [compound 347], the IC50 was below 100 nM on pEGFR in CUTO14 cells, below 100 nM in experiment [1], 100 to 1000 nM on Ba/F3 cells with EGFR WT and below 100 nM in experiment [2].
